Measurements from US11339110B2, “Efficient crystallization process for preparing ultrapure Treprostinil and crystal prepared therefrom” (CHIROGATE INTERNATIONAL INC., priority 2019, dated 2022).

Tests used:
Assay type in all cases: physicochemical
[1] = Stability of Treprostinil in ethanol (UPLC tracing of ethyl ester and dimers); conditions: 40±1° C.; for Treprostinil / Treprostinil dimer-1 (IT201d1) / Treprostinil dimer-2 (IT201d2) / Treprostinil ethyl ester (IT201e2): 1.00 g in 5 ml ethanol, UPLC
Experimental: (§1) Ultra Performance Liquid Chromatography (UPLC) Analysis: The UPLC spectra were collected on a Waters ACQUITY UPLC instrument. The conditions were shown as the following: The sample is diluted to 1 mg/ml by […] (v/v) acetonitrile/H2O. The column is Waters BEH C18, 1.7 μm, 2.1*150 mm. The mobile phase is 60/40 (v/v) buffer/acetonitrile from 0 to 10 min, gradient changes of buffer/acetonitrile from 60/40 to 5/95 (v/v) (curve 6) from 10 to 20 min, 5/95 (v/v) buffer/acetonitrile from 20 to 25 min, gradient changes of buffer/acetonitrile from 5/95 to 0/100 (v/v) (curve 6) from 25 to 30 min, 0/100 (v/v) buffer/acetonitrile from 30 to 35 min. Buffer solution is pH 3.0 aqueous solution adjusted by trifluoroacetic acid. The flow rate is set as 0.42 ml/min. Column temperature is set as 45° C., sample temperature is set as 25° C. Injection is 1.5 μL. Run time is 35 min. UV detector is set as 210 nm.
1.00 g Treprostinil was dissolved in 5 ml ethanol in a glass vial at room temperature to form a homogenous solution, which was stirred at 40±1° C. oil bath and periodically sampled to UPLC measurement for tracing the formation of Treprostinil ethyl ester and Treprostinil dimers.

[2] = Stability of Treprostinil stored in a glass vial at 40° C. (UPLC tracing of ethyl ester and dimers); conditions: 40±1° C.; for Treprostinil / Treprostinil dimer-1 (IT201d1) / Treprostinil dimer-2 (IT201d2): no solvent, glass vial, UPLC
Experimental: as §1
0.01% g Treprostinil was placed in a glass vial and stirred at 40±1° C. oil bath and periodically sampled to UPLC measurement for tracing the formation of Treprostinil ethyl ester and Treprostinil dimers.

[3] = Filterability of Treprostinil crystal (microfiltration, pressure change during filtering); conditions: 100 ml sample solution, 25±1° C., 0.22 μm hydrophilic PVDF membrane
Experimental: The filterability of sample solution is numerical estimated by the pressure changes inside the microfiltration assemblies during filtering. The microfiltration assemblies with 47 mm fritted glass, 0.22 μm hydrophilic PVDF filter membrane, 250 ml bottle, PANCHUM VP-900 dry pump, and an external pressure gauge were settled for tracing the pressure changes during filtration. The usage volume of sample solution for filtering was set as 100 ml and the filtering temperature was set as 25±1° C. for comparing the filterability of samples in a similar experimental condition.
Sample of crystalline Form I of anhydrous Treprostinil in ethyl acetate (containing 3% v/v water) was prepared from Example 5, and the concentration is about 0.05 g/ml. Sample of crystalline Form A of anhydrous Treprostinil in acetonitrile was prepared as disclosed by U.S. Pat. No. 9,278,903 Example 12, and the concentration is about 0.02 g/ml. […] The pressure changes of pure ethyl acetate, pure acetonitrile, crystalline Form I of anhydrous Treprostinil in ethyl acetate (containing 3% v/v water), crystalline Form A of anhydrous Treprostinil in acetonitrile, and monohydrated Treprostinil crystal in ethanol/water during filtration were measured and the results am shown in FIG. 10.

## CCCCC[C@H](O)CC[C@@H]1[C@H]2Cc3cccc(OCC(=O)O)c3C[C@H]2C[C@H]1O [Treprostinil]
[1]; time 0 h
  Treprostinil: 99.88%
  Treprostinil dimer-1 (IT201d1): 0.04%
  Treprostinil dimer-2 (IT201d2): 0.06%
  Treprostinil ethyl ester (IT201e2): 0.02%
[1]; time 2 h
  Treprostinil: 99.50%
  Treprostinil dimer-1 (IT201d1): 0.04%
  Treprostinil dimer-2 (IT201d2): 0.07%
  Treprostinil ethyl ester (IT201e2): 0.39%
[1]; time 4 h
  Treprostinil: 99.07%
  Treprostinil dimer-1 (IT201d1): 0.06%
  Treprostinil dimer-2 (IT201d2): 0.06%
  Treprostinil ethyl ester (IT201e2): 0.81%
[1]; time 6 h
  Treprostinil: 98.68%
  Treprostinil dimer-1 (IT201d1): 0.07%
  Treprostinil dimer-2 (IT201d2): 0.07%
  Treprostinil ethyl ester (IT201e2): 1.18%
[1]; time 8 h
  Treprostinil: 98.15%
  Treprostinil dimer-1 (IT201d1): 0.10%
  Treprostinil dimer-2 (IT201d2): 0.11%
  Treprostinil ethyl ester (IT201e2): 1.64%
[1]; time 10 h
  Treprostinil: 97.73%
  Treprostinil dimer-1 (IT201d1): 0.12%
  Treprostinil dimer-2 (IT201d2): 0.11%
  Treprostinil ethyl ester (IT201e2): 2.04%
[1]; time 12 h
  Treprostinil: 97.41%
  Treprostinil dimer-1 (IT201d1): 0.13%
  Treprostinil dimer-2 (IT201d2): 0.09%
  Treprostinil ethyl ester (IT201e2): 2.37%
[1]; dissolved in ethanol
  formation rate of Treprostinil dimers: about 0.01 % per hour
  formation rate of Treprostinil ethyl ester: about 0.2 % per hour
[2]; Treprostinil stored without solvent
  formation rate of Treprostinil dimers: about 0.01 % per hour
[2]; time 0 h
  Treprostinil: 99.90%
  Treprostinil dimer-1 (IT201d1): 0.04%
  Treprostinil dimer-2 (IT201d2): 0.06%
[2]; time 2 h
  Treprostinil: 99.89%
  Treprostinil dimer-1 (IT201d1): 0.06%
  Treprostinil dimer-2 (IT201d2): 0.05%
[2]; time 4 h
  Treprostinil: 99.88%
  Treprostinil dimer-1 (IT201d1): 0.06%
  Treprostinil dimer-2 (IT201d2): 0.06%
[2]; time 6 h
  Treprostinil: 99.84%
  Treprostinil dimer-1 (IT201d1): 0.07%
  Treprostinil dimer-2 (IT201d2): 0.08%
[2]; time 8 h
  Treprostinil: 99.83%
  Treprostinil dimer-1 (IT201d1): 0.08%
  Treprostinil dimer-2 (IT201d2): 0.09%
[2]; time 10 h
  Treprostinil: 99.79%
  Treprostinil dimer-1 (IT201d1): 0.09%
  Treprostinil dimer-2 (IT201d2): 0.12%
[2]; time 12 h
  Treprostinil: 99.77%
  Treprostinil dimer-1 (IT201d1): 0.10%
  Treprostinil dimer-2 (IT201d2): 0.13%
[3]; 47 mm fritted glass
  finish time of filtration: about 92 seconds
[3]; until about 180 seconds
  solution filtered: ~80%
